Data published in ChEMBL document CHEMBL5729293, “Inhibitors of KEAP1-Nrf2 protein-protein interaction” (2022).
pKd: −log10 of the molar value.

Experiment: Fluorescence Based Assay: The details of the KEAP1 KELCH ThermoFluor® Assay Construct are as follows: Kelch domain of human KEAP 1 (321-624 aa) was used in the assay. The protein was expressed in E. coli with 6His tag that was cleaved prior to receipt for use.ThermoFluor® experiments were carried out using instruments owned by Janssen Research and Discovery, L.L.C. through its acquisition of 3-Dimensional Pharmaceuticals, Inc. 1,8-ANS (Invitrogen) was used as a fluorescent dye. Protein (KEAP Kelch) and compound solutions were dispensed into black 384-well polypropylene PCR microplates (Abgene) and overlayed with silicone oil (1 μL, Fluka, type DC 200) to prevent evaporation.Reference wells contained KEAP Kelch without compounds, and the assay conditions were as follows: 1.1 μM (0.037mg/mL) KEAP Kelch, 80 μM 1,8-ANS, 25 mM PIPES, pH 7.0, 100 mM NaCl, 0.002% Tween-20.

Compound | pKd
Cc1ccc([C@@H](c2ccn3c(C(F)(F)F)nnc3c2C)C(C)(C)C(=O)O)cc1CN1CC2(CC2)Oc2nc(OCCN3CCCC3)c(C)cc2S1(=O)=O | > 9.00
Cc1ccc([C@@H](c2ccn3c(C(F)F)nnc3c2C)C(C)(C)C(=O)O)cc1CN1CC2(CC2)Oc2nc(OCCN3CCCCC3)c(C)cc2S1(=O)=O | > 9.00
Cc1ccc([C@H](c2ccn3c(C(F)(F)F)nnc3c2C)C(C)(C)C(=O)O)cc1CN1CC2(CCOCC2)Oc2nc(OCCN3CCC(F)(F)CC3)ccc2S1(=O)=O | > 9.00
Cc1ccc([C@@H](c2ccn3c(C(F)(F)F)nnc3c2C)C(C)(C)C(=O)O)cc1CN1CC2(CC2)Oc2nc(OCCN3CCCCC3)c(C)cc2S1(=O)=O | > 9.00
Cc1ccc([C@@H](CC(=O)O)c2ccc3c(nnn3CC3CC3)c2C)cc1CN1C[C@H]2CCCN2c2ncccc2S1(=O)=O | > 9.00
Cc1ccc([C@H](c2ccn3c(C(F)(F)F)nnc3c2C)C(C)(C)C(=O)O)cc1CN1CC2(CCOCC2)Oc2nc(NCCN3CCNCC3)c(C)cc2S1(=O)=O | > 9.00
Cc1ccc([C@@H](c2ccn3c(C(F)F)nnc3c2C)C(C)(C)C(=O)O)cc1CN1CC2(CCOCC2)Oc2nc(OCCN3CCCC3)c(C)cc2S1(=O)=O | > 9.00
Cc1ccc([C@@H](c2ccn3c(C(F)(F)F)nnc3c2C)C(C)(C)C(=O)O)cc1CN1CC2(CC2)Oc2nc(OCCN3CCCCC3)ccc2S1(=O)=O | > 9.00
Cc1ccc([C@H](CC(=O)O)c2ccc3c(nnn3C3CC3)c2C)cc1CN1C[C@@H]2CCCCN2c2ncccc2S1(=O)=O | > 9.00
CCn1nnc2c(C)c([C@H](CC(=O)O)c3ccc(C)c(CN4C[C@H]5CCCCN5c5ncccc5S4(=O)=O)n3)ccc21 | > 9.00
Cc1ccc(C(CC(=O)O)c2cc(OC3CC3)c3c(c2)nnn3C)cc1CN1C[C@H]2CCCCN2c2ncccc2S1(=O)=O (some centres not stated) | > 9.00
Cc1cnc2c(c1)S(=O)(=O)N(Cc1cc([C@@H](c3ccc4c(nnn4C4CC4)c3C)C(C)(C)C(=O)O)cnc1C)CC1(CC1)O2 | > 9.00
Cc1ccc([C@@H](c2ccn3c(C(F)(F)F)nnc3c2C)C(C)(C)C(=O)O)cc1CN1C[C@@]2(CCOC2)Oc2ncccc2S1(=O)=O | > 9.00
Cc1ccc([C@H](c2ccn3c(C(F)(F)F)nnc3c2C)C(C)(C)C(=O)O)cc1CN1CC2(CCOCC2)Oc2nc(NC(C)CN3CCCCC3)c(C)cc2S1(=O)=O (some centres not stated) | > 9.00
Cc1cnc2c(c1)S(=O)(=O)N(Cc1cc([C@@H](c3ccn4c(C(F)F)nnc4c3C)C(C)(C)C(=O)O)ncc1C)CC1(CC1)O2 | > 9.00
Cc1ccc([C@H](CC(=O)O)c2ccn3c(C(F)(F)F)nnc3c2C)cc1CN1CC2CCCCN2c2ncc(C#N)cc2S1(=O)=O (some centres not stated) | > 9.00
Cc1ccc([C@H](c2ccn3c(C(F)(F)F)nnc3c2)C(C)(C)C(=O)O)cc1CN1CC2(CCOCC2)Oc2ncccc2S1(=O)=O | > 9.00
Cc1ccc([C@@H](c2ccn3c(C(F)(F)F)nnc3c2C)C(C)(C)C(=O)O)cc1CN1CC2(CCOCC2)Oc2nc(CCC(=O)NCCOCCN)ccc2S1(=O)=O | < 5.00
CCn1nnc2c(C)c([C@H](CC(=O)O)c3ccc(C)c(CN4C[C@@H]5CCCCN5c5ncccc5S4(=O)=O)n3)ccc21 | > 9.00
Cc1ccc([C@H](c2ccn3c(C(F)(F)F)nnc3c2C)C(C)(C)C(=O)O)cc1CN1CC2(CCNCC2)Oc2ncccc2S1(=O)=O | < 5.00
Cc1ccc([C@H](c2ccn3c(C(F)(F)F)nnc3c2C)C(C)(C)C(=O)O)cc1CN1CC2(CCOCC2)Oc2nc(N[C@H](C)CN3CCOCC3)c(C)cc2S1(=O)=O | > 9.00

Compound | pKd
Cc1ccc([C@@H](CC(=O)O)c2ccn3c(C(F)(F)F)nnc3c2C)cc1CN1C[C@H]2CCCN2c2ncccc2S1(=O)=O | > 9.00
Cc1cnc2c(c1)S(=O)(=O)N(Cc1cc([C@@H](c3ccn4c(C(F)(F)F)nnc4c3C)C(C)(C)C(=O)O)ccc1C)CC1(CNC1)O2 | > 9.00
Cc1ccc([C@H](c2ccn3c(C(F)(F)F)nnc3c2C)C(C)(C)C(=O)O)cc1CN1C[C@]2(CCOC2)Oc2ncccc2S1(=O)=O | > 9.00
Cc1cnc2c(c1)S(=O)(=O)N(Cc1cc([C@@H](c3ccn4c(C(F)(F)F)nnc4c3C)C(C)(C)C(=O)O)ccc1C)C[C@]1(CCOC1)O2 | > 9.00
Cc1ccc([C@H](c2ccn3c(C(F)(F)F)nnc3c2C)C(C)(C)C(=O)O)cc1CN1CC2(CCOCC2)Oc2nc(OCCC3CCNCC3)c(C)cc2S1(=O)=O | > 9.00
Cc1ccc([C@@H](c2ccn3c(C(F)(F)F)nnc3c2C)C(C)(C)C(=O)O)nc1CN1CC2(CCOCC2)Oc2nc(OCCN3CCOCC3)ccc2S1(=O)=O | > 9.00
Cc1cnc2c(c1)S(=O)(=O)N(Cc1cc([C@@H](c3ccn4c(C5CC5)nnc4c3C)C(C)(C)C(=O)O)ccc1C)CC1(CC1)O2 | > 9.00
CCn1nnc2c(C)c([C@@H](CC(=O)O)c3ccc(C)c(CN4C[C@H]5CCCCN5c5ncccc5S4(=O)=O)n3)ccc21 | > 9.00
COC1CCN(CCOc2nc3c(cc2C)S(=O)(=O)N(Cc2cc([C@@H](c4ccn5c(C(F)(F)F)nnc5c4C)C(C)(C)C(=O)O)ccc2C)CC2(CC2)O3)CC1 | > 9.00
Cc1cnc2c(c1)S(=O)(=O)N(Cc1cc([C@H](c3ccn4c(C(F)(F)F)nnc4c3C)C(C)(C)C(=O)O)ccc1C)C[C@@]1(CCOC1)O2 | > 9.00
Cc1ccc([C@H](c2ccn3c(C(F)F)nnc3c2C)C(C)(C)C(=O)O)nc1CN1CC2(CC2)Oc2nc(OCCN3CCCCC3)c(C)cc2S1(=O)=O | > 9.00
Cc1ccc([C@@H](c2ccn3c(C(F)F)nnc3c2C)C(C)(C)C(=O)O)cc1CN1CC2(CCOCC2)Oc2nc(OCCN3CCCCC3)c(C)cc2S1(=O)=O | > 9.00
Cc1ccc([C@H](CC(=O)O)c2ccc3c(nnn3CC3CC3)c2C)cc1CN1C[C@H]2CCCN2c2ncccc2S1(=O)=O | > 9.00
Cc1cnc2c(c1)S(=O)(=O)N(Cc1nc([C@@H](c3ccn4c(C(F)F)nnc4c3C)C(C)(C)C(=O)O)ccc1C)CC1(CC1)O2 | > 9.00
CCn1nnc2c(C)c(C(CC(=O)O)c3ccc(C)c(CN4C[C@H]5CCCCN5c5ncccc5S4(=O)=O)n3)ccc21 (some centres not stated) | > 9.00
Cc1ccc([C@H](CC(=O)O)c2ccn3c(C(F)(F)F)nnc3c2C)cc1CN1C[C@H]2CCCCN2c2ccccc2S1(=O)=O | > 9.00
Cc1ccc(C(CC(=O)O)c2ccc3c(nnn3C3CC3)c2C)cc1CN1C[C@@H]2CCCCN2c2ncccc2S1(=O)=O (some centres not stated) | > 9.00
Cc1ccc([C@H](c2ccn3c(C(F)(F)F)nnc3c2C)C(C)(C)C(=O)O)cc1CN1CC2(CCOCC2)Oc2nc(N[C@@H](C)CN3CCOCC3)c(C)cc2S1(=O)=O | > 9.00
Cc1cnc2c(c1)S(=O)(=O)N(Cc1cc([C@H](c3cc4cc(C)nnc4n3C)C(C)(C)C(=O)O)ccc1C)CC1(CC1)O2 | > 9.00
Cc1cnc2c(c1)S(=O)(=O)N(Cc1cc([C@H](c3ccn4c(C(F)(F)F)nnc4c3)C(C)(C)C(=O)O)ccc1C)CC1(CC1)O2 | > 9.00
Cc1ccc([C@H](c2ccn3c(C(F)(F)F)nnc3c2C)C(C)(C)C(=O)O)cc1CN1CC2(CCOCC2)Oc2nc(NCCN3CCOCC3)c(C)cc2S1(=O)=O | > 9.00

Compound | pKd
CCn1nnc2c(C)c(C(CC(=O)O)c3ccc(C)c(CN4C[C@@H]5CCCCN5c5ncccc5S4(=O)=O)n3)ccc21 (some centres not stated) | > 9.00
CCn1nnc2c(C)c([C@@H](CC(=O)O)c3ccc(C)c(CN4C[C@@H]5CCCCN5c5ncccc5S4(=O)=O)n3)ccc21 | > 9.00
Cc1ccc([C@@H](c2ccn3c(C(F)(F)F)nnc3c2C)C(C)(C)C(=O)O)cc1CN1CC2(CCOCC2)Oc2nc(OCCN3CCCC3)c(C)cc2S1(=O)=O | > 9.00
Cc1ccc([C@H](CC(=O)O)c2ccn3c(C(F)(F)F)nnc3c2C)cc1CN1C[C@H]2CCCN2c2ncccc2S1(=O)=O | > 9.00
Cc1cnc2c(c1)S(=O)(=O)N(Cc1cc([C@@H](c3ccn4c(C(F)(F)F)nnc4c3C)C(C)(C)C(=O)O)ccc1C)CC1(CC1)O2 | > 9.00
Cc1ccc([C@H](c2ccn3c(C(F)(F)F)nnc3c2C)C(C)(C)C(=O)O)cc1CN1CC2(CCOCC2)Oc2nc(N[C@@H](C)CN3CCCC3)c(C)cc2S1(=O)=O | > 9.00
Cc1ccc(C(CC(=O)O)c2ccc3c(nnn3CC3CC3)c2C)cc1CN1C[C@H]2CCCN2c2ncccc2S1(=O)=O (some centres not stated) | > 9.00
Cc1cnc2c(c1)S(=O)(=O)N(Cc1cc(C(c3ccc4c(nnn4C4CC4)c3C)C(C)(C)C(=O)O)cnc1C)CC1(CC1)O2 (configuration not stated) | > 9.00
Cc1ccc([C@@H](c2ccn3c(C(F)(F)F)nnc3c2C)C(C)(C)C(=O)O)cc1CN1CC2(CC2)Oc2ncccc2S1(=O)=O | > 9.00
Cc1ccc(C(c2ccc3c(nnn3CC3CC3)c2C)C(C)(C)C(=O)O)nc1CN1CC2(CCOCC2)Oc2nc(OCCN3CCOCC3)ccc2S1(=O)=O (configuration not stated) | > 9.00
Cc1ccc([C@H](c2ccn3c(C(F)(F)F)nnc3c2C)C(C)(C)C(=O)O)cc1CN1CC2(CC2)Oc2nc(N[C@@H](C)CN3CCCCC3)c(C)cc2S1(=O)=O | > 9.00
Cc1ccc([C@@H](c2ccc3c(nnn3CC3CC3)c2C)C(C)(C)C(=O)O)nc1CN1CC2(CCOCC2)Oc2nc(OCCN3CCOCC3)ccc2S1(=O)=O | > 9.00
Cc1ccc([C@@H](c2ccn3c(C(F)F)nnc3c2C)C(C)(C)C(=O)O)nc1CN1CC2(CCOCC2)Oc2nc(OCCN3CCCCC3)c(C)cc2S1(=O)=O | > 9.00
Cc1ccc([C@H](CC(=O)O)c2ccn3c(C(F)(F)F)nnc3c2C)cc1CN1CC2(CC2)Oc2ncc(F)cc2S1(=O)=O | > 9.00
Cc1ccc([C@@H](c2ccn3c(C(F)F)nnc3c2C)C(C)(C)C(=O)O)cc1CN1CC2(CC2)Oc2nc(OCCN3CCCC3)c(C)cc2S1(=O)=O | > 9.00
CCn1nnc2c(C)c([C@@H](CC(=O)O)c3ccc(C)c(CN4C[C@H]5CCCN5c5ncccc5S4(=O)=O)n3)ccc21 | > 9.00
Cc1cnc2c(c1)S(=O)(=O)N(Cc1cc(C(c3ccn4c(C5CC5)nnc4c3C)C(C)(C)C(=O)O)ccc1C)CC1(CC1)O2 (configuration not stated) | > 9.00
Cc1ccc([C@H](c2ccn3c(C(F)F)nnc3c2C)C(C)(C)C(=O)O)nc1CN1CC2(CC2)Oc2nc(OCCN3CCCC3)c(C)cc2S1(=O)=O | > 9.00
Cc1ccc([C@H](c2ccn3c(C(F)(F)F)nnc3c2C)C(C)(C)C(=O)O)cc1CN1CC2(CCOCC2)Oc2nc(OCCN3CCNCC3)ccc2S1(=O)=O | > 9.00
Cc1ccc([C@@H](c2ccn3c(C(F)(F)F)nnc3c2C)C(C)(C)C(=O)O)cc1CN1CC2(CNC2)Oc2ncccc2S1(=O)=O | > 9.00
